From patent publication US7037502B2, “Peptide with the amino acid sequence of KVLDGQDP having anti-inflammatory properties” (priority 2001, dated 2006)
“Also recorded” adds a separate entry of the source.

Columns and labels:
PLA2 activated by TGase = biological target: T1, PLA2 activated by TGase (Cavia cutleri, UniProt P08587); test: Inhibitory effect of synthetic peptides on PLA2 activated by TGase in vitro; assay type: biochemical, Bovine; conditions: peptides 1×10^−8 M, preincubated with 0.001 Unit TGase 15 min at 37° C.
T1 construct: pre-incubated with 0.001 Unit TGase (Guinea pig liver, Sigma); purchased Sigma
T1 sequence (P08587 2-690 limits assumed): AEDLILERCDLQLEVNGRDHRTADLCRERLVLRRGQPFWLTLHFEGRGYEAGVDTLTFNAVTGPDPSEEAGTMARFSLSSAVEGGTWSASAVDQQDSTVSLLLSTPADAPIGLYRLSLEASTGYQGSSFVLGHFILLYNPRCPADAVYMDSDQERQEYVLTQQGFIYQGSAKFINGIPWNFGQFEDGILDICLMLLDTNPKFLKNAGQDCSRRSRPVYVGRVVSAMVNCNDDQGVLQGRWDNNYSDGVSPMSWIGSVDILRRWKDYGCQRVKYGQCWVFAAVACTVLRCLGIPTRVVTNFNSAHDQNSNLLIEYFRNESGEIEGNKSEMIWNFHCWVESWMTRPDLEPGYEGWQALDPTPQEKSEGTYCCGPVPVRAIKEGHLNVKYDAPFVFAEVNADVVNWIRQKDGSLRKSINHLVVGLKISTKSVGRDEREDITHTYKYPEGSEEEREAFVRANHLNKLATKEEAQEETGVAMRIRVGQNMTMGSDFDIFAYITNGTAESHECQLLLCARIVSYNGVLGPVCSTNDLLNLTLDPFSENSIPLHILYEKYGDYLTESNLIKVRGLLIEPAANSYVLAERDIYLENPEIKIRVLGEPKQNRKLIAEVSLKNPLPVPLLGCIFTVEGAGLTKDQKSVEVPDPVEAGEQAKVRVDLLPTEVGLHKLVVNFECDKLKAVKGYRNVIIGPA
Protocol: A series of synthetic peptides (1×10^−8 M) were pre-incubated with 0.001 Unit TGase (Guinea pig liver, Sigma) in […] of assay buffer (75 mM Tris-Cl, pH 9.0, 5 mM CaCl2, 1 mg/ml fatty acid free bovine serum albumin) for 15 min at 37° C. We employed a negative control as assay buffer without TGase, and a positive control as TGase without peptides. After pre-incubation, […] of 1-acyl-2-[1-^14C] arachidonic acid-glycerophospho -ethanolamine (about 2×10^5 dpm) was added in pre-incubated mixture, and incubated for 1 hr at 37° C. The reaction was terminated by adding 0.75 ml of Dole's reagent, and followed the same procedure described as above.
For inhibitory test of the peptides given, each value is the mean of data from three separate experiments (S.D.<10%). The increased PLA2 activity by TGase was determined as 100% that was 11.22 pmole arachidonyl/hr. % Inhibition was shown in FIG. 3.

[1] = system: allergic conjunctivitis to ragweed (Ambrosia trifida); test: Allergic conjunctivitis to ragweed in guinea pig: clinical scores (conjunctival edema and redness); assay type: in vivo, Hartley female guinea pig; conditions: for Statistical evaluation of clinical scores (Mann-Whitney test), P compared to Dexamethasone / Statistical evaluation of clinical scores (Mann-Whitney test), P compared to Livostine / Statistical evaluation of clinical scores (Mann-Whitney test), P compared to No treatment group: conjunctival edema and redness score 0-4+, 20 min after allergen challenge, 12 eyes per group, eye drops
Protocol: The peptides of the present invention were analyzed in experimental model of allergic conjunctivitis to ragweed (giant ragweed; Ambrosia trifida) in guinea pig. Hartley strain of guinea pig was selected according to previous reports of conjunctival anaphylaxis (Calonge M., et al., Acta Ophthalmol 68; 470–476, 1990) and females were chosen based on the sex dimorphism of ocular mucosal immunity with the protective role of male hormones (Saruya S., et al., Act Soc Ophthalmol Jap 72; 833–845, 1968). The conjunctival redness and edema are main signs of seasonal allergic conjunctivitis and eosionphil infiltration is the hallmark of the conjunctival histology in patients with allergic conjunctivitis (Abelson M B., et al., Arch Ophthalmol. 101; 555–556, 1983; Butrus S I., et al., Int. Ophthalmol. Clin. 28; 324–328, 1988) 86 Hartley female guinea pigs, 200–250 g were housed in the animal facilities of the Asan Institute for Life Sciences (Korea), given guinea pig chow and water ad libitum, and cared for in accordance with the Declaration of Helsinki and the National Institute of Health Guide to the Care and Use of the Laboratory Animals (Korea). […] On day 15, immunized guinea pigs were divided 14 groups, 6 for each group. 11 anti-inflammatory peptides including new recombinants, dexamethasone eye drop (Maxidex, 0.1% dexamethasone, Alcon) and anti-histamine eye drop (Livostin, levocabastine, Janssen) were used for 13 groups, and no treatment for one group. Normal controls were employed as 6 non-immunized and non-treated guinea pigs. […] All the procedures were followed experimental model of allergic conjunctivitis described by Merayo-Lloves et al (Experimental model of allergic conjunctivitis to ragweed in guinea pig. Curr. Eye Res. 14; 487–494, 1995). Anti-inflammatory peptides were resolved in sterile saline (100 μmol/40 μl concentration). All peptides and dexamethasone eye solutions were challenged 3 hour prior to the last pollen application on day 15, 10 minutes after pollen application, and 4 times thereafter at the 3 hour interval. Conjunctival edema and redness were judged in room light and under an operating microscope (Zeiss, Germany). The evaluation was performed in a masked fashion at 20 min after allergen challenge and each clinical sign was scored on a scale 0–4+ (0 absent, 1+ minimal, 2+ mild, 3+ moderate, 4+ severe), adapted for guinea pig from previous report (Merayo-Lloves et al: Experimental model of allergic conjunctivitis to ragweed in guinea pig. Curr. Eye Res. 14; 487–494, 1995). Clinical scores of each group (12 eyes in each group) were analyzed.

Sequence	PLA2 activity activated by TGase (FIG. 3), result in words (PLA2 activated by TGase)	Statistical evaluation of clinical scores (Mann-Whitney test), P compared to Dexamethasone [1]	Statistical evaluation of clinical scores (Mann-Whitney test), P compared to Livostine [1]	Statistical evaluation of clinical scores (Mann-Whitney test), P compared to No treatment group [1]	Clinical signs (conjunctival redness and edema scores), result in words ([1]; n=12, P<0.01, SD<10%, Mann-Whitney test, listed as SEQ ID NO:2)
KVLDGQDP [Peptide R2, synthetic peptide of the invention]	significantly reduced	0.796	0.515	0.000	statistically significant difference from other groups; also recorded: most effective
KVLDPVKG [Peptide R1, synthetic peptide of the invention]	significantly reduced	0.000	0.000	0.965	
